This experiment concerns Staphylococcus aureus CIP 65.25 (methicillin resistant). Description: anti-biofilm assay on 24 h biofilms formed on Chronoflex catheter segments in microfermentors. Format: cell-based. The following applies: for effect on bacterial survival / lysis of bacterial cells: biofilm exposed 24 hours at 37° C., complete lysis = under the threshold of detection (10 CFU per KT segment); for number of viable cells on catheter segment (Moyenne): biofilm on catheter segment exposed to solution for 24 hours at 37° C., triplicate, limit of detection 10 CFU per KT segment; for effect in lysing the bacteria compared with 15 v/v % EtOH: EtOH alone. As for the experimental part: For example, preliminary assay testing of anti-biofilm properties of a TCEA solution comprising a 10.0 w/v % concentration of trisodium citrate at and 15.0, 20.0 and 25.0 v/v % concentrations of ethyl alcohol (i.e., ethanol or EtOH) were conducted. The testing was performed in the following manner.
Ethanol 15%, 20% and 25% (v/v)+trisodium citrate 10% (w/v)
Controls: Ethanol 15%, 20% and 25% • Trisodium citrate 10% • Water for injection The material tested were segments, each 1 centimeter long, of sterile catheters Chronoflex (“catheter segments”). The strains used were Staphylococcus aureus CIP 65.25 (methicillin resistant).
Biofilms were formed in aerated microfermentors with catheter segments fixed onto an internal removable glass slide of the microfermentors. Strains from frozen stocks were cultivated in Trypticase Soja broth (“TSB”). An inoculum of 10^8 cells was used to inoculate microfermentors containing the catheter segments. A continuous flow of 54 milliliters per hour (“mL/h”) of TSB and constant aeration with sterile pressed air at 0.3 bar were used to obtain continuous flow-through culture conditions. After 24 hours of incubation, the catheter segments were removed from the incubator and separated from their respective microfermentor device. Each catheter segment was then carefully rinsed in 1 mL of saline.
To determine the number of viable cells within the biofilms formed onto the catheter segments before being subjected to or made to be in contact with the test solutions (i.e., before treatment), the biofilms (triplicate for each strain) were resuspended in TSB by sonication and vortexing. Serial dilutions of the resulting suspensions were performed and plated onto appropriate agar plates to determine the number of viable cells after overnight incubation at 37 degrees Celsius (“° C.”).
In parallel, catheter segments to be tested were placed in a tube containing 1 mL of the different lock solutions: (i) ethanol at 15%, 20% and 25% (vol/vol); (ii) trisodium citrate at 10% (vol/vol); (iii) ethanol/tri sodium citrate mixing solutions (15%-10%, 20%-10%, 25%-10% (vol/vol)), wherein ethanol concentrations were 15%, 20%, and 25%, and trisodium citrate concentration was 10%; and (iv) water for injection as control. For every organism, the experiments were repeated in triplicate, and during each treatment assay catheter segments were exposed to the different solutions for 24 hours at 37° C. Subsequently, the catheter segments were removed, rinsed once with saline, and the number of adherent viable microorganisms determined, as described above. In FIG. 1, the number of viable cells is expressed as Colony Forming Unit (“CFU”), and the bacteria count is expressed as a decimal logarithm, log 10. (Note: FIG. 1 expresses the CFU as UFC, which is an acronym for unite formant colonie and is the same unit of measure as CFU.). The limit of detection in the experimental conditions is 10 CFU per KT segment, thus the threshold of detection is 10 CFU per KT segment. KT is a catheter sample used during testing, and its length can range from 3 to 5 centimeters. A KT can be a specimen of a catheter that have been cut (1 meter long usually) and placed into a microfermentor apparatus so that biofilms are formed at a surface of the catheter. Once the biofilm is formed and place into contact with the catheter lock solution to be tested, a measured the number of bacterial viable cells still present at the surface of the catheter is obtained. The limit of detection is 10 Colony Forming Units per specimen of catheter.
During the study, the disclosed catheter locking solution had been tested to ascertain whether it can eradication viable bacterial and prevent regrowth of biofilm. […] The catheter locking solution had been tested against Staphylococcus aureus (methicillin resistant).

This is an account of results in patent US10940240B2, “Catheter locking solution and catheter locking therapy” (Medical Components, Inc., priority 2016, dated 2021).

Turning to `O=C([O-])CC(O)(CC(=O)[O-])C(=O)[O-].[Na+].[Na+].[Na+]` [citrate 10% (m/v), trisodium citrate], the “effect on bacterial survival / lysis of bacterial cells” value (shortened to “effect on bacterial survival / lysis”) was “no effect on the bacterial survival” and the “number of viable cells on catheter segment (Moyenne)” value (“number of viable cells” below) was determined as 3.64E+06 CFU.

Turning to ethyl alcohol [EtOH 15% (v/v)], the “number of viable cells” value is reported as 2.12E+02 CFU. Moreover, the “effect on bacterial survival / lysis” value (listed as EtOH alone (at 15 v/v %)) is listed as “did not lyse all the bacterial cells”. The “effect on bacterial survival / lysis” value (listed as EtOH alone, at 15 v/v % concentration) is “did not lyse all the bacterial cells”. The “effect on bacterial survival / lysis” value (listed as Ethyl alcohol at a concentration of 15.0 v/v %) is “did not lyse all bacterial cells”. In addition, the “bacterial cells after treatment (decreased from 1.00 E+07)” value (preliminary in vitro testing) is on record as 1.00E+02.

Consider ethyl alcohol [EtOH 20% (v/v)], for which the “effect in lysing the bacteria compared with 15 v/v % EtOH” value was “significantly greater effect in lysing the bacteria” and the “number of viable cells” value was determined as 1.00E+01 CFU.

ethyl alcohol [EtOH 25% (v/v)]: the “effect in lysing the bacteria compared with 15 v/v % EtOH” value is on record as “significantly greater effect in lysing the bacteria” and the “number of viable cells” value is recorded as 1.00E+01 CFU.
